For six compounds, inhibition results are on record in ChEMBL document CHEMBL3632491, “Synthesis and evaluation of aminopyridine derivatives as potential BACE1 inhibitors” (Bioorg Med Chem Lett, 2015).

This assay addresses Beta-secretase 1 (Homo sapiens) (UniProt P56817). The assay is described as follows: Inhibition of recombinant BACE1 (unknown origin) using synthetic dodecapeptide with BACE1 cleavage sequence of Swedish type as substrate at 2 mM after 30 mins.

Chain of Beta-secretase 1 (Homo sapiens) (P56817 whole entry): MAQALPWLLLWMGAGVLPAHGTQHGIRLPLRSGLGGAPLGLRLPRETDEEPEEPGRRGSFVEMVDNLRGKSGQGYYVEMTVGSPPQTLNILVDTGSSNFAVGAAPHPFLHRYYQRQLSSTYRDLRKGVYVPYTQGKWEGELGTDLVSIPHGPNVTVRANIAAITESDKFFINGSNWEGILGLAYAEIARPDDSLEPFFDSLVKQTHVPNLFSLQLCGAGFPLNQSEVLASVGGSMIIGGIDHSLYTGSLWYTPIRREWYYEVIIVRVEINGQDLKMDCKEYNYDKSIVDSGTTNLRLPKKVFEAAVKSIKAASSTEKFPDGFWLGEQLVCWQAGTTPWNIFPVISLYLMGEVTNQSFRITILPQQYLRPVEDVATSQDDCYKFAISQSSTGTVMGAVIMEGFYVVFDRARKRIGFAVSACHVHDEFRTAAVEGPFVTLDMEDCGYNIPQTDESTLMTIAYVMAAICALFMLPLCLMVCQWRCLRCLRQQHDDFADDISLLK

A word on the inhibition: it is the change of the read-out against control, counted positive when it falls. As to `COc1cccc(CCCCc2ccc(NC(C)=O)nc2)c1`, the inhibition was 20%.

Take `COCOc1ccc(C(=O)Nc2ccc(CCCCC(O)c3cccc(OC)c3)cn2)cc1` (stereo unspecified): the inhibition turned out to be 19%.

Turning to `COc1cccc(CCCCc2cccc(NC(C)=O)n2)c1`, the inhibition stood at 21%.

Take `COc1cccc(C(O)CCCCc2ccc(NC(C)=O)nc2)c1` (stereo unspecified): the inhibition was 20%.

In the case of `COc1cccc(C(O)CCc2cccnc2NC(C)=O)c1` (stereo unspecified), the inhibition came out at 18%.

On to `COc1cccc(C(O)CCCCc2cccc(NC(C)=O)n2)c1` (stereo unspecified), for which the inhibition was 56%.
